Article PMC4053396, “Cloning, expression and biochemical characterization of the cholesterol oxidase CgChoA from Chryseobacterium gleum” (BMC Biotechnology, 2014)

T1: CgChoA (Chryseobacterium gleum, UniProt A0ABP2IT22)
T1 construct: gene HMPREF0204_11499
T1 sequence (A0ABP2IT22 1-528): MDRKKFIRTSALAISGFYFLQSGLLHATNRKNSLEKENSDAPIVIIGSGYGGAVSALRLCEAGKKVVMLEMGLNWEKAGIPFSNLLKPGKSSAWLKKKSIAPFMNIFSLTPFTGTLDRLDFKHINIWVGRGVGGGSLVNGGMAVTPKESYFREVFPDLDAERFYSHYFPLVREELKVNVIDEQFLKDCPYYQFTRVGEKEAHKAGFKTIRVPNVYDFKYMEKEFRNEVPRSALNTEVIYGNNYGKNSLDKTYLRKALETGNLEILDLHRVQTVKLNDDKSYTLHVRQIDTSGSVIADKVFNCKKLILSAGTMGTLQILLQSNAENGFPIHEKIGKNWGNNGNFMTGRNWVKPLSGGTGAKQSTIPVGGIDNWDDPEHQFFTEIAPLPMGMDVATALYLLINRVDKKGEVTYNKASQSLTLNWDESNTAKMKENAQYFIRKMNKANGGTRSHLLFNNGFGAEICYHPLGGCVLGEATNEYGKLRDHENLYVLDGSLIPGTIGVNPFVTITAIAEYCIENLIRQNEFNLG


Experiments:
CgChoA = molecular target: T1, CgChoA; test: UV-vis spectrum of purified protein and of supernatant after boiling; format: binding; settings: co-purified cofactor; non-covalently bound
[1] = substrate: CC(C)CCC[C@@H](C)[C@H]1CC[C@H]2[C@@H]3CC=C4C[C@@H](O)CC[C@]4(C)[C@H]3CC[C@]12C; test: HRP-coupled H2O2 assay, initial rates; format: biochemical, Chryseobacterium gleum; settings: cholesterol dispersed in water with taurocholate as sole surfactant, 0.011 M MOPS pH 6.75, 35°C, O2 as co-substrate

| Molecule | UV-vis spectrum of purified protein and of supernatant after boiling (CgChoA) | Km [1] |
| --- | --- | --- |
| Cc1cc2nc3c(=O)[nH]c(=O)nc-3n(C[C@H](O)[C@H](O)[C@H](O)COP(=O)(O)OP(=O)(O)OC[C@H]3O[C@@H](n4cnc5c(N)ncnc54)[C@H](O)[C@@H]3O)c2cc1C [FAD] | Only FAD that is non-covalently associated with the enzyme is detectable by this method | – |
| CgChoA (Chryseobacterium gleum ATCC 35910) (protein) MDRKKFIRTSALAISGFYFLQSGLLHATNRKNSLEKENSDAPIVIIGSGYGGAVSALRLCEAGKKVVMLEMGLNWEKAGIPFSNLLKPGKSSAWLKKKSIAPFMNIFSLTPFTGTLDRLDFKHINIWVGRGVGGGSLVNGGMAVTPKESYFREVFPDLDAERFYSHYFPLVREELKVNVIDEQFLKDCPYYQFTRVGEKEAHKAGFKTIRVPNVYDFKYMEKEFRNEVPRSALNTEVIYGNNYGKNSLDKTYLRKALETGNLEILDLHRVQTVKLNDDKSYTLHVRQIDTSGSVIADKVFNCKKLILSAGTMGTLQILLQSNAENGFPIHEKIGKNWGNNGNFMTGRNWVKPLSGGTGAKQSTIPVGGIDNWDDPEHQFFTEIAPLPMGMDVATALYLLINRVDKKGEVTYNKASQSLTLNWDESNTAKMKENAQYFIRKMNKANGGTRSHLLFNNGFGAEICYHPLGGCVLGEATNEYGKLRDHENLYVLDGSLIPGTIGVNPFVTITAIAEYCIENLIRQNEFNLG | – | 500 µM |
